Measured values as given in US12161694B2, “Methods and compositions for regulating innate lymphoid cell inflammatory responses” (The Broad Institute, Inc., priority 2017, dated 2024).
Entries after “also recorded” stand apart in the source; their conditions may differ. Where no end group is shown, it is not given here.

Tested on: lung-resident ILCs
Experiment: Droplet-based scRNA-seq of lung-resident ILCs after in vivo treatment
Parameters: species or system mouse
Conditions: PBS, NMU, IL-25, combination
Excerpt: Mice and in vivo ILC activation. C57Bl/6J mice were purchased from the Jackson Laboratory. Nmur1-LacZ reporter mice with a LacZ cassette knocked into the Nmur1 locus were rederived from Nmur1^tm1.1(KOMP)Vleg sperm obtained from the trans-NIH Knock-Out Mouse Project (KOMP) Repository. Mice were housed under specific-pathogen-free conditions. For experiments, mice were matched for sex and age, and most mice were 6-10 weeks old. Where indicated, mice were anesthetized with Isoflurane and treated intranasally with the indicated stimuli (500 ng IL-25, 500 ng IL-33, or 20 μg Neuromedin U) daily for three consecutive days. The total administered volume was 20 μl for all conditions. Mice were randomly assigned to treatment groups after matching for sex and age. […]
Fluorescence-activated cell sorting of innate lymphoid cells. […]
Analysis of droplet-based scRNA-Seq data: Initial QC. Gene counts were obtained by aligning reads to the mm10 genome using CellRanger software (10× Genomics), with the genome reannotated at the 3′ end of Nmur1 (see main text). […]
Analysis of droplet-based scRNA-Seq samples: Signature scores. Applicants calculated signature scores as the log of the geometric mean of the TPX values for the genes in the signature. […] Then the signature score for that cell is calculated as log(IIg(xg+1)^1/m) which is equivalent to the arithmetic mean of the log TPX values. […]

Neuromedin U (FRVDEEFQSPFASQSRGYFLFRPRN-NH2; listed as Homo sapiens) [NMU, neuropeptide ligand of Nmur1 (US Biological)]
transcriptional profiles of ILCs (tSNE localization): largely localized with those from control mice; also recorded: transcriptionally similar to control ILCs
